# Assay results taken from PMC6684654 (Nature Communications, 2019).
# “And” between values parts separate entries of the source, which are not always exact repeats. Equal values may be shown once. Read-outs that look alike come from different tables or passages of the source. Bridge positions count the residues as written; N and C are the ends. Ends that are not written are not given here.
# B1: Thanatin (peptide)
# peptide: GSKKPVPIIYCNRRTGKCQRM
# modifications: disulfide 11-18
# notes: thanatin, inducible 21-residue insect peptide; source: synthetic peptide (solid-phase, Fmoc), purified by reverse-phase HPLC to over 98%
# Columns and labels:
# [1] = tested on: E. coli ATCC25922; test: MIC, broth microdilution; type: cell-based; conditions: Escherichia coli
# Excerpt: (§1) MIC values were identified through microdilution in sterilized 96-well polypropylene microtiter plates according to the broth microdilution guideline of the Clinical and Laboratory Standards Institute[30]. The test medium was Mueller–Hinton broth (MHB), and the strain concentrations were adjusted to 5 × 10^5 CFU/mL.
# [2] = tested on: E. coli ATCC35218; test: MIC, broth microdilution; type: cell-based; conditions: Escherichia coli
# Excerpt: as §1
# [3] = tested on: K. pneumoniae ATCC13883; test: MIC, broth microdilution; type: cell-based; conditions: Klebsiella pneumoniae
# Excerpt: as §1
# [4] = tested on: NDM-1 E. coli XJ141015; test: MIC, broth microdilution; type: cell-based; conditions: Escherichia coli; MHB, 5 × 10^5 CFU/mL, 16 h, 37 °C; read-out: MIC
# Excerpt: as §1
# [5] = tested on: NDM-1 E. coli XJ141026; test: MIC, broth microdilution; type: cell-based; conditions: Escherichia coli; MHB, 5 × 10^5 CFU/mL, 16 h, 37 °C; read-out: MIC
# Excerpt: as §1
# [6] = tested on: NDM-1 E. coli XJ141047; test: MIC, broth microdilution; type: cell-based; conditions: Escherichia coli; MHB, 5 × 10^5 CFU/mL, 16 h, 37 °C; read-out: MIC
# Excerpt: as §1
# [7] = tested on: NDM-1 K. pneumoniae XJ155017; test: MIC, broth microdilution; type: cell-based; conditions: Klebsiella pneumoniae, 16 h
# Excerpt: as §1
# [8] = tested on: NDM-1 K. pneumoniae XJ155018; test: MIC, broth microdilution; type: cell-based; conditions: Klebsiella pneumoniae, 16 h
# Excerpt: as §1
# [9] = tested on: NDM-1 K. pneumoniae XJ155019; test: MIC, broth microdilution; type: cell-based; conditions: Klebsiella pneumoniae, 16 h
# Excerpt: as §1
# [10] = tested on: NDM-1 K. pneumoniae XJ155020; test: MIC, broth microdilution; type: cell-based; conditions: Klebsiella pneumoniae, 16 h
# Excerpt: as §1
# [11] = tested on: E. coli ATCC25922; test: Antibiotic susceptibility (MIC), automated identification system; type: cell-based; conditions: Supplementary Table 1; for MIC: Escherichia coli, ATCC25922
# Excerpt: (§2) Clinical isolate strains were identified and screened by the Phoenix 100 automated bacterial identification system to rapidly detect antimicrobial resistance. Total DNA was extracted by the TIANamp Bacteria DNA Kit according to the manufacturer’s protocol. The presence of blaNDM-1 was confirmed using a diagnostic kit for NDM-1 (Puruikang Bio Inc., Shenzhen, China) based on fluorescent quantitative polymerase chain reaction assay. According to the instruction, Ct values of less than 37 were considered positive.
# [12] = tested on: K. pneumoniae ATCC13883; test: as above; type: cell-based; conditions: Supplementary Table 2; for MIC: Klebsiella pneumoniae, ATCC13883
# Excerpt: as §2
# [13] = tested on: NDM-1 E. coli XJ141015; test: as above; type: cell-based; conditions: Supplementary Table 1; for MIC: Escherichia coli
# Excerpt: as §2
# [14] = tested on: NDM-1 E. coli XJ141026; test: as above; type: cell-based; conditions: Supplementary Table 1; for MIC: Escherichia coli
# Excerpt: as §2
# [15] = tested on: NDM-1 E. coli XJ141047; test: as above; type: cell-based; conditions: Supplementary Table 1; for MIC: Escherichia coli
# Excerpt: as §2
# [16] = tested on: NDM-1 K. pneumoniae XJ155017; test: as above; type: cell-based; conditions: Supplementary Table 2; for MIC: Klebsiella pneumoniae
# Excerpt: as §2
# [17] = tested on: NDM-1 K. pneumoniae XJ155018; test: as above; type: cell-based; conditions: Supplementary Table 2; for MIC: Klebsiella pneumoniae
# Excerpt: as §2
# [18] = tested on: NDM-1 K. pneumoniae XJ155019; test: as above; type: cell-based; conditions: Supplementary Table 2; for MIC: Klebsiella pneumoniae
# Excerpt: as §2
# [19] = tested on: NDM-1 K. pneumoniae XJ155020; test: as above; type: cell-based; conditions: Supplementary Table 2; for MIC: Klebsiella pneumoniae
# Excerpt: as §2
# [20] = tested on: seven NDM-1-producing strains; test: Checkerboard assay / FIC, summary; type: cell-based, E. coli; K. pneumoniae; conditions: in combination with thanatin
# Experimental: (§3) Synergy in vitro was assessed by checkerboard assays. […] Following incubation, the synergistic/additive effect was determined by calculating the FIC indices (FICI) according to the formula: FICI = (MIC of A in combination/MIC of A) + (MIC of B in combination/MIC of B). The synergy or additive was defined according to standard criteria (FICI ≤ 0.5 was defined as synergistic; 0.5 < FICI ≤ 1 was defined as additive; 1 < FICI ≤ 4 was defined as indifference; FICI > 4 was defined as antagonism)[39].
# [21] = tested on: NDM-1-producing E. coli XJ141026; test: Bactericidal activity of combination treatment; type: cell-based; conditions: Tha 0.4 μM, alone or combined, 16 h
# Experimental: The kill curves were determined as mentioned above to investigate the bactericidal activity of the combination treatment. […] CFUs were counted.
# [22] = molecular target: T1, NDM-1 (Klebsiella pneumoniae, UniProt C7C422); conditions: NDM-1/Imipenem
# T1 sequence (C7C422 20-270, looked up, natural form): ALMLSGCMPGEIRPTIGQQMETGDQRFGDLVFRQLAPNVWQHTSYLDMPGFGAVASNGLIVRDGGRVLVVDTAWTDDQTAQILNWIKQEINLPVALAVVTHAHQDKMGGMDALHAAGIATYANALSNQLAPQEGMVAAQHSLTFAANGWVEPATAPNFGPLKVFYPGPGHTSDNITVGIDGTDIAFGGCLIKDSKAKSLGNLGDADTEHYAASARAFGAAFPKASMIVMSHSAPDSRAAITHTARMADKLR
# Experimental: The change in absorbance at 300 nm was monitored for 30 min in 96-well plates at 30 °C. The initial rate of reaction for each inhibitor concentration was calculated from the slope of the initial linear phase of the respective time course. The IC50 value was obtained by plotting the residual enzyme activity on imipenem (%) vs. inhibitor concentration (log10). […] The best fits were obtained with the competitive inhibition model by using the equation V0 = (Vmax × [S]) / (Km × (1 + [I] / Ki) + [S]). […] The kinetics parameters Km/Vmax/Kcat were calculated by fitting the data into the double reciprocal Lineweaver–Burk plots. GraphPad 5.0 was used for data analysis.
# [23] = molecular target: T1, NDM-1; conditions: reported Km for imipenem; ref 15 (Yuan Q, He L, Ke H, 2012); cited from earlier work
# [24] = tested on: NDM-1 E. coli XJ141026; test: Checkerboard assay / FIC; type: cell-based; conditions: Escherichia coli
# Experimental: as §3
# [25] = tested on: E. coli XJ141026-infected BALB/c mice; test: Thanatin + meropenem in sepsis model: survival; type: in vivo, mouse (E. coli infection); conditions: alone or combined, single i.p. dose, n = 14
# Experimental: BALB/c mice were infected intraperitoneally with 8 × 10^7 CFU of E. coli XJ141026 in 0.1 mL of MHB. […] The model group was intraperitoneally injected with an equivalent volume of PBS. […] In addition, the survival rates were detected as described above.
# [26] = molecular target: T2, New Delhi metallo-β-lactamase-1 (NDM-1), without signal peptide, amino-terminal histidine tag (RED-tris-NTA second-generation dye on the His-tag (in the MST assay)); test: cell-based or functional assay
# T2 chain: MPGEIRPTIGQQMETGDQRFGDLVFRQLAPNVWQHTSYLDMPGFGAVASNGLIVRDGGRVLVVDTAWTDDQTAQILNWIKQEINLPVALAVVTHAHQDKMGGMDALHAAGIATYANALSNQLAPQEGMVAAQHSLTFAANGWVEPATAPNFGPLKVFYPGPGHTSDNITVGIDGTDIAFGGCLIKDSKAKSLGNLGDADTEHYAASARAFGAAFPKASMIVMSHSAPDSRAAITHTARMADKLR
# [27] = molecular target: T2, New Delhi metallo-β-lactamase-1 …; test: MST; RED-tris-NTA-labelled apo-NDM-1 (100 nM, mixed 1:1) with serially diluted thanatin; 50 mM HEPES pH 6.8, 0.05% Tween-20; 30 min at room temperature; Monolith NT.115 Pico, medium MST power; conditions: both partners purified
# [28] = molecular target: T2, New Delhi metallo-β-lactamase-1 …; test: enzyme inhibition kinetics; 1 nM purified NDM-1 with 10 μM ZnSO4, pre-incubated 20 min at 30 °C with thanatin; imipenem 100-1600 μM; initial rates fitted to the competitive inhibition model; 50 mM HEPES, 0.05% Tween-20; conditions: both partners purified
# [29] = MHB, 5 × 10^5 CFU/mL, 37 °C, read-out: MIC
Molecule,MIC [4] [µg/mL],MIC [5] [µg/mL],MIC [6] [µg/mL],MIC [9] [µg/mL],MIC [10] [µg/mL],MIC [11] [µg/mL],susceptibility class (MIC) [11],MIC [12] [µg/mL],susceptibility class (MIC) [12],MIC [13] [µg/mL],susceptibility class (MIC) [13],MIC [14] [µg/mL],susceptibility class (MIC) [14],MIC [15] [µg/mL],susceptibility class (MIC) [15],MIC [16] [µg/mL],susceptibility class (MIC) [16],MIC [17] [µg/mL],susceptibility class (MIC) [17],MIC [18] [µg/mL],also measured
C[C@@H](O)[C@H]1C(=O)N2C(C(=O)O)=C(SCCN=CN)C[C@H]12 [Imipenem],16,16,32,128,128,≤ 1,S,≤ 1,S,> 8,R,> 8,R,> 8,R,> 8,R,> 8,R,> 8,"MIC ([1]; ATCC25922, MHB, 5 × 10^5 CFU/mL, 16 h, 37 °C, read-out: MIC): < 0.125 µg/mL; MIC ([2]; ATCC35218, MHB, 5 × 10^5 CFU/mL, 16 h, 37 °C, read-out: MIC): < 0.125 µg/mL; MIC ([3]; ATCC13883, MHB, 5 × 10^5 CFU/mL, 16 h, 37 °C, read-out: MIC): < 0.125 µg/mL; MIC [7, 29]: > 256 µg/mL; MIC [8, 29]: 32 µg/mL; susceptibility class (MIC) [18]: R; MIC [19]: > 8 µg/mL; susceptibility class (MIC) [19]: R; FIC indices, all seven strains [20]: ≤ 1; effect of combination [20]: synergistic or additive; bacterial count ([21]; Imp 25 μM, replicate 1, listed as Imp): 2.00E+11 CFU/mL and 11.30 Log10(CFU/mL); bacterial count ([21]; Imp 25 μM, replicate 2, listed as Imp): 9.50E+11 CFU/mL and 11.98 Log10(CFU/mL); bacterial count ([21]; Imp 25 μM, replicate 3, listed as Imp): 7.41E+10 CFU/mL and 10.87 Log10(CFU/mL); bacterial count ([21]; Imp 25 μM, replicate 4, listed as Imp): 5.75E+11 CFU/mL and 11.76 Log10(CFU/mL); Kcat [22]: 130.40 ± 2.67 s⁻¹; Km [22]: 104 µM; Vmax [22]: 0.13 ± 0.03 µM/s; Km [23]: 94 µM"
C[C@@H](O)[C@H]1C(=O)N2C(C(=O)O)=C(S[C@@H]3CN[C@H](C(=O)N(C)C)C3)[C@H](C)[C@H]12 [Meropenem],64,64,64,128,128,≤ 1,S,≤ 1,S,> 8,R,> 8,R,> 8,R,> 8,R,> 8,R,> 8,"MIC ([1]; ATCC25922, 16 h): < 0.125 µg/mL; MIC ([2]; ATCC35218, 16 h): < 0.125 µg/mL; MIC ([3]; ATCC13883, 16 h): < 0.125 µg/mL; MIC [7]: > 256 µg/mL; MIC [8]: 128 µg/mL; susceptibility class (MIC) [18]: R; MIC [19]: > 8 µg/mL; susceptibility class (MIC) [19]: R; MIC ([24]; in the presence of sub-MIC thanatin): 18 µM; MIC ([24]; meropenem alone): 144 µM; FIC indices, all seven strains [20]: ≤ 1; effect of combination [20]: synergistic or additive; bacterial count ([21]; Mem 18 μM, replicate 1, listed as Mem): 11.61 Log10(CFU/mL) and 4.04E+11 CFU/mL; bacterial count ([21]; Mem 18 μM, replicate 2, listed as Mem): 12.11 Log10(CFU/mL) and 1.30E+12 CFU/mL; bacterial count ([21]; Mem 18 μM, replicate 3, listed as Mem): 11.93 Log10(CFU/mL) and 8.52E+11 CFU/mL; bacterial count ([21]; Mem 18 μM, replicate 4, listed as Mem): 10.88 Log10(CFU/mL) and 7.65E+10 CFU/mL; Survival (number of mice) ([25]; Tha 0.1 mg/kg, Mem 10 mg/kg, Day 7): 4; survival rate ([25]; thanatin 0.1 mg/kg, meropenem 10 mg/kg): 30%"
B1,–,–,–,–,–,–,–,–,–,–,–,–,–,–,–,–,–,–,–,–,"inhibition of imipenem hydrolysis by purified NDM-1 (1 nM enzyme, 100 μM imipenem, 12 concentrations of thanatin), IC50 [26]: 3.21 µM; Kd [27]: ~710 nM; Ki [28]: 2840 nM"
